# In PubChem BioAssay (NCI):
#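 The compound was tested at five concentrations on cells cultured in 96-well plates, with a 48-hour exposure period. At the TGI there is no net growth.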
# How the values were obtained:
# Test in all cases: NCI-60 cell line screen, 48 h
# HCC-2998 colon = tested on: HCC-2998 colon
# HOP-92 NSCLC = tested on: HOP-92 NSCLC
# MCF7 breast = tested on: MCF7 breast
# MDA-MB-435 = tested on: MDA-MB-435
# PC-3 prostate = tested on: PC-3 prostate
# RPMI-8226 leukemia = tested on: RPMI-8226 leukemia
# SK-MEL-28 melanoma = tested on: SK-MEL-28 melanoma
# SNB-75 CNS = tested on: SNB-75 CNS
# U251 CNS = tested on: U251 CNS
# UO-31 renal = tested on: UO-31 renal
Compound,TGI (HCC-2998 colon) [µM],TGI (HOP-92 NSCLC) [µM],TGI (MCF7 breast) [µM],TGI (MDA-MB-435) [µM],TGI (PC-3 prostate) [µM],TGI (RPMI-8226 leukemia) [µM],TGI (SK-MEL-28 melanoma) [µM],TGI (SNB-75 CNS) [µM],TGI (U251 CNS) [µM],TGI (UO-31 renal) [µM]
C/C(=N/NC(=S)N1CCN(C(=S)N/N=C(/C)c2ccccn2)CC1)c1ccccn1,> 100,> 100,> 100,> 100,> 100,> 100,> 100,> 77.6,> 100,> 76.7
COc1ccccc1NC(=S)N/N=C/c1ccccn1,32.9,29,> 100,> 46.4,> 46.4,> 22.6,> 46.4,24.4,12.5,24.4
Clc1nc2c(C#Cc3ccccc3)ncnc2n1C1CCCCO1 (stereo not drawn),28.7,34,20.9,94.1,43.2,35.8,91.3,> 100,26.2,25.1
CCN(CC)C1Oc2cc3c(cc2C(c2cc(OC)c(OC)c(OC)c2)C1C)OCO3 (stereo not drawn),19.8,96.5,> 50,0.535,> 57.4,20.2,34.3,> 69.9,6.89,> 46.7
COC1(OC)C=CC(=O)C=C1,15.4,11,8.42,12.8,13.9,13.5,4.16,26.9,4.9,4.22
Nc1ccc2c(c1)NC(=O)[C@@H]1CCCN1C2=O,> 100,> 100,> 100,> 100,> 100,> 100,> 100,> 100,> 100,> 100
N#C/C(C(=O)Nc1ccccc1)=C(/N)N1CCCCC1,> 100,> 100,> 100,> 100,> 100,> 100,> 100,> 100,> 100,> 100
COC(=O)c1cc(C)ccc1/C=C1\Cc2c(C)cc(C)cc2C1=O,> 100,25.2,> 100,> 100,> 100,> 100,> 100,35.5,42.9,> 85.8
C=CC(OC(C)=O)c1ccc(OC(C)=O)cc1 (stereo not drawn),18.6,22.8,26.5,11.9,7.82,5.92,28.6,31.5,5.65,4.25
O=C(O)COc1cc(-c2ccccc2)nc2ccccc12,> 100,> 100,> 100,73.8,> 100,> 100,> 100,> 100,> 100,> 100
CC(C)(CN1CCCCC1)C(/C=C/c1ccccc1)=N\NC(=O)N/N=C(/C=C/c1ccccc1)C(C)(C)CN1CCCCC1,1.86,3.76,3.53,2.86,7.7,3.96,3.07,3.05,3,2.37
CN(C)CCNC(=O)c1cc(NC(=O)c2cc(NC(=O)CC/C=C3/[C@@H]4CC[C@H]3N=N4)cn2C)cn1C,> 100,> 100,> 100,> 100,> 100,> 100,> 100,> 100,> 100,> 100
COc1ccc(NC(=O)CC(=O)N2N=C(N(c3ccccc3)c3ccccc3)CC2c2ccccc2)cc1 (stereo not drawn),> 100,> 100,> 100,> 100,> 100,> 100,> 100,> 100,> 100,> 100
CC1CN=C(c2ccc(CN3CCC(C4CCN(Cc5ccc(C6=NCC(C)N6)cc5)CC4)CC3)cc2)N1 (stereo not drawn),30.9,> 100,37.4,51.6,35.8,46.2,> 100,31.1,29.6,58.4
O=c1[nH]c2cc([N+](=O)[O-])c(Nc3c4ccccc4nc4ccccc34)c([N+](=O)[O-])c2[nH]1,5.75,18.5,8.36,8.62,15.2,8.25,12.9,13.5,22.6,5.98
C=C(CCOC)CCC1CCCCC(=C)[C@H]1O (stereo partly drawn),,> 100,> 100,> 100,> 100,> 100,> 100,> 100,> 100,> 100
Cc1cn(CCOCCOC(=O)NC(CCCNC(N)=O)C(=O)O)c(=O)[nH]c1=O (stereo not drawn),> 100,> 100,> 100,> 100,> 100,> 100,> 100,> 100,> 100,> 100

Compound,TGI (HCC-2998 colon) [µM],TGI (HOP-92 NSCLC) [µM],TGI (MCF7 breast) [µM],TGI (MDA-MB-435) [µM],TGI (PC-3 prostate) [µM],TGI (RPMI-8226 leukemia) [µM],TGI (SK-MEL-28 melanoma) [µM],TGI (SNB-75 CNS) [µM],TGI (U251 CNS) [µM],TGI (UO-31 renal) [µM]
CCN(CCCl)c1cccc(NC(=O)c2ccc(C(=O)Nc3cccc(CN(C)C)c3)cc2)c1,0.368,1.6,1.09,0.114,1.02,27,0.68,0.759,4.08,1.81
COc1cc(C)cc2c(-c3c(O)cc(O)c4c3C[C@H](C)N[C@H]4C)cc(-c3cc(-c4c(O)cc(O)c5c4C[C@H](C)N[C@H]5C)c4cc(C)cc(OC)c4c3O)c(O)c12,> 100,> 100,> 100,> 100,> 100,> 100,> 100,> 100,> 100,> 100
N#Cc1c(N2CCN(c3ccc([N+](=O)[O-])cc3)CC2)[n+](=O)c2ccc(-c3ccc([N+](=O)[O-])cc3)cc2n1[O-],> 57.3,> 83.9,> 100,> 100,> 100,> 75,> 100,> 100,> 41,> 100
CNC(=O)N(CCC#N)CCCN(C(=O)N(C)C)c1ccccc1,> 100,> 100,> 100,> 100,> 100,> 100,> 100,> 100,> 100,> 100
O=C(O)CCSC1=NCCN1,> 100,> 100,> 100,> 100,> 100,> 100,> 100,> 100,> 100,> 100
COC(=O)[C@@H]1C=C[C@H](NC(C)=O)C1,> 100,> 100,> 100,> 100,> 100,> 100,> 100,> 100,> 100,> 100
Nn1c(Sc2nc3ccccc3c(=O)n2N)nc2ccccc2c1=O,30.7,29.3,27.4,> 49.5,28.4,11.5,13.1,34.8,20,3.26
COc1cc2c(cc1O)CCN(C)[C@H]2Cc1ccc(Oc2c(O)c(OC)cc3c2C[C@H]2c4c(c(OC)c(OC)c(OC)c4-3)CCN2C)cc1,8.09,7.17,10.7,8.7,8.9,5.09,11.7,9.61,9.05,9.77
COC(=O)[C@](C)(Cc1ccccc1)NC(=O)[C@@H](C)N1[C@@H](c2ccccc2)COC1(C)C,,> 100,> 100,> 100,> 100,> 100,> 100,75.8,> 100,> 100
CC1CN=C(c2ccc(-c3nc(-c4ccc(C5=NCC(C)N5)cc4)nc(N(C)C)n3)cc2)N1 (stereo not drawn),3.76,11.3,4.71,3.09,4.42,17.9,8.12,4.29,2.35,19.9
CC(C)(C)C(=O)N1CCN(C=O)C1=S,> 100,52.9,64.5,> 100,> 100,> 100,> 100,90.6,> 100,60.2
CC(=Nc1cc(Cl)cc(Cl)c1)c1ccncc1,> 100,> 100,> 100,> 100,> 100,> 100,> 100,> 100,> 100,> 100
CC1=CC[C@](C)(O)[C@@]2(C)CC[C@H]3C(=C(C)C)C(=O)C[C@]3(C)C[C@H]12,> 50,> 50,> 50,> 50,> 50,26.2,> 50,> 50,> 50,> 50
CC1=NN2C(=N)/C(=C/c3ccccc3)C(=O)N=C2S1,> 100,> 100,> 33.6,> 100,> 100,> 100,> 100,> 100,> 100,> 100
Cc1nc2cccc(F)c2c(=O)n1-c1nnc(C(F)(F)F)s1,> 10,> 10,> 10,> 10,> 10,> 10,> 10,> 10,> 10,> 10
Cc1c(C#N)c(=N)oc2ccccc12,> 100,> 100,> 100,> 100,> 100,> 100,> 100,> 100,> 100,> 100
